Test [1] has as its target T1, BIN1-SH3 (Homo sapiens, UniProt O00499).
T1 construct: GST (cleaved yes); Genecast (peptides); host or cells: E. coli BL21-DE3 GOLD
T1 sequence (O00499 520-593 limits assumed): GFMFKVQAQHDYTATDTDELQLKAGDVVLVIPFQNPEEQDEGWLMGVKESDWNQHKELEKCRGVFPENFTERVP
Kind of test: Fluorescence polarization saturation binding, BIN1-SH3 domain with FITC-labeled hnRNP G peptide. Conditions: FITC-labeled peptide 10 nM. The protocol:
(§1) To further investigate if the tri-proline region spanning the variant had the capacity to interact with SH3 domains, a fluorescence polarization assay with hnRNP G peptides and SH3 domains were performed. Wildtype and mutant (△P162) hnRNP G peptides of different lengths spanning the region of interest (P38159) were ordered from Genecast (Supplementary material 2) with or without Fluorescein isothiocyanate (FITC)-label (purity >95%, dissolved in 50 mM potassium phosphate pH 7.5). Two SH3 domains were expressed and purified: ASAP1-SH3 (Addgene: 91501), BIN1-SH3 (GenScript) according to standard protocol (Supplementary material 2). […]
(§2) To determine the affinity between BIN-SH3 domain and the non-labeled hnRNP G peptides, displacement experiments were performed where the fixed concentration of FITC-labeled peptide and protein was mixed with an increasing concentration of displacer non-labeled peptide. […] All results were analyzed with GraphPad Prism to determine the dissociation constant for labeled peptide and the IC50 values, and Microsoft Excel was used to calculate KD from IC50. All fluorescence polarization experiments were performed in 50 mM potassium phosphate pH 7.5, containing 1 mM tris(2-carboxyethyl)phosphine (TCEP). […]
(Polarisation of emitted light reports the rotation of a fluorescent probe.)

Test [2] has as its target T2, ASAP1-SH3 (Homo sapiens, UniProt Q9ULH1).
T2 construct: Two SH3 domains were expressed and purified: ASAP1-SH3 (Addgene: 91501), BIN1-SH3 (GenScript); GST (cleaved yes); host or cells: E. coli BL21-DE3 GOLD
T2 sequence (Q9ULH1 1067-1129 limits assumed): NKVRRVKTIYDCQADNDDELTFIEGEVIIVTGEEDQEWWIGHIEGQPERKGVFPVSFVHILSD
Kind of test: Fluorescence polarization saturation binding, ASAP1-SH3 domain with FITC-labeled hnRNP G peptide. Conditions: FITC-labeled peptide 10 nM. As to the method:
as §1, §2

Test [3] deals with T1, BIN1-SH3. Kind of test: Fluorescence polarization displacement, BIN1-SH3 domain with non-labeled hnRNP G peptides. Type of test: binding. Conditions: for binding affinity for BIN1-SH3 (in words): fluorescence polarization, 50 mM potassium phosphate pH 7.5, 1 mM TCEP. As to the method: (§3) To further investigate if the tri-proline region spanning the variant had the capacity to interact with SH3 domains, a fluorescence polarization assay with hnRNP G peptides and SH3 domains were performed. Wildtype and mutant (△P162) hnRNP G peptides of different lengths spanning the region of interest (P38159) were ordered from Genecast (Supplementary material 2) with or without Fluorescein isothiocyanate (FITC)-label (purity >95%, dissolved in 50 mM potassium phosphate pH 7.5). Two SH3 domains were expressed and purified: ASAP1-SH3 (Addgene: 91501), BIN1-SH3 (GenScript) according to standard protocol (Supplementary material 2).
(§4) To determine the affinity between BIN-SH3 domain and the non-labeled hnRNP G peptides, displacement experiments were performed where the fixed concentration of FITC-labeled peptide and protein was mixed with an increasing concentration of displacer non-labeled peptide. The mP signal was investigated to determine the IC50 values, which were then converted to dissociation constants as previously described. All results were analyzed with GraphPad Prism to determine the dissociation constant for labeled peptide and the IC50 values, and Microsoft Excel was used to calculate KD from IC50. All fluorescence polarization experiments were performed in 50 mM potassium phosphate pH 7.5, containing 1 mM tris(2-carboxyethyl)phosphine (TCEP).
SH3 domains were expressed by transforming expression constructs into E. coli (BL21-DE3 GOLD) and grown in LB media with 50 µg/ml ampicillin (ASAP1) or 50 µg/ml kanamycin (BIN1) at 37°C until reaching an OD600 of 0.6. Protein expression was induced with 1mM isopropyl-β-thiogalactopyranoside and the protein expression proceeded overnight at 18 °C. Cells were harvested and resuspended in lysis buffer (50 mM Tris/HCl pH 7.8, 10 µg/mL DNase I and RNase A (Hoffman-La Roche, Switzerland), 300 mM NaCl, 4 mM MgCl2, 2 mM CaCl2 and cOmplete EDTA-free Protease Inhibitor Cocktail (Hoffman-La Roche)) and lysed by sonication. Cell lysate was clarified by centrifugation at 20,000 g for 40 min, filtered and transferred to Glutathione Sepharose 4 Fast Flow media (GE Healthcare). After 30-minute incubation, glutathione media was washed with wash buffer (50 mM Tris/HCl pH 7.8 300 mM NaCl, 4 mM DTT), eluted with elution buffer (50 mM Tris/HCl pH 7.8 300 mM NaCl, 4 mM DTT, 10 mM reduced glutathione), and the GST-tag was cleaved overnight with PreScission protease (BIN1) or Thrombin (ASAP1). Next day the cleaved protein was applied to a […] to remove the tag, and pure protein was dialyzed into 50 mM potassium phosphate buffer pH 7.4, and concentrated using the Amicon ultra 15ml centrifugal filters (3kDa cutoff, Merck Millipore, UFC900308). Purity of the sample was analyzed by SDS-PAGE and its identity confirmed by MALDI-TOF mass spectrometry. The sample was then frozen until fluorescence polarization experiments were performed.

Test [4] has as its target T2, ASAP1-SH3. Nature of the test: Fluorescence polarization displacement, ASAP1-SH3 domain. The format is binding. As to the method:
as §3
as §4, with “(TCEP). […]” for “(TCEP).”

The target of test [5] is T3, BIN1 SH3 (Homo sapiens, UniProt O00499).
T3 chain: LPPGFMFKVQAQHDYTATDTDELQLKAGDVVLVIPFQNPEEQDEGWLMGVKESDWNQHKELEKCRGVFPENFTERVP
Kind of test: fluorescence polarization displacement.

Test [6] concerns the target T3, BIN1 SH3. Nature of the test: fluorescence polarization saturation.
The target of a further test is T4, ASAP1 SH3 (Homo sapiens, UniProt Q9ULH1).
T4 chain: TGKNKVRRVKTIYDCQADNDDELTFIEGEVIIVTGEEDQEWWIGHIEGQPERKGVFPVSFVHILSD
Nature of the test: fluorescence polarization saturation.

Where a SMILES comes first, the peptide text is derived from it. Where no end group is shown, it is not given here.

The text below walks through data of article PMC10923852, “Gustavson syndrome is caused by an in-frame deletion in RBMX associated with potentially disturbed SH3 domain interactions” (European Journal of Human Genetics, 2023).

As a reminder, the Kd is the equilibrium constant for the complex coming apart.

For “150-KRGPPPRSGGPPPKRSAPSGPy-170 [hnRNP G aa 150-170, wildtype FITC, FITC-labeled wildtype hnRNP G peptide, residues 150-170]”, at BIN1-SH3 [1], the “binding to BIN1-SH3 (in words)” value was “binding with moderate affinities”. Further, the “binding to ASAP1-SH3 (in words)” value at ASAP1-SH3 [2] was “binding with moderate affinities”.
As to `C[C@H](NC(=O)[C@H](CO)NC(=O)[C@H](CCCNC(=N)N)NC(=O)[C@H](CCCCN)NC(=O)[C@@H]1CCCN1C(=O)[C@@H]1CCCN1C(=O)[C@@H]1CCCN1C(=O)CNC(=O)CNC(=O)[C@H](CO)NC(=O)[C@H](CCCNC(=N)N)NC(=O)[C@@H]1CCCN1C(=O)[C@@H]1CCCN1C(=O)CNC(=O)[C@H](CCCNC(=N)N)NC(=O)[C@@H](N)CCCCN)C(=O)N1CCC[C@H]1C(=O)N[C@@H](CO)C(=O)NCC(=O)N1CCC[C@H]1C(=O)N[C@@H](Cc1ccc(O)cc1)C(=O)O` [hnRNP G aa 150-170, △P162] (H-KRGPPRSGGPPPKRSAPSGPY-OH; N-terminus and C-terminus assumed), the “binding affinity for BIN1-SH3 (in words)” value on BIN1-SH3 [3] was “no clear difference in binding affinity compared to the wildtype peptide”; at BIN1-SH3 [3] (listed as longer hnRNP G peptide, △P162 variant), “no clear difference in SH3 binding affinity between the wildtype and the mutant peptide”.
As for `C[C@H](NC(=O)[C@H](CO)NC(=O)[C@H](CCCNC(=N)N)NC(=O)[C@H](CCCCN)NC(=O)[C@@H]1CCCN1C(=O)[C@@H]1CCCN1C(=O)[C@@H]1CCCN1C(=O)CNC(=O)CNC(=O)[C@H](CO)NC(=O)[C@@H](N)CCCNC(=N)N)C(=O)N1CCC[C@H]1C(=O)N[C@@H](CO)C(=O)NCC(=O)N[C@@H](Cc1ccc(O)cc1)C(=O)O` [hnRNP G aa 156-169, wildtype] (H-RSGGPPPKRSAPSGY-OH; N-terminus and C-terminus assumed), the “binding affinity for BIN1-SH3 (in words)” value is “moderate affinities” at BIN1-SH3 [3] and “weaker but comparable affinity” on BIN1-SH3 [3] (listed as shorter hnRNP G peptide (aa 156–169)). Besides, the “binding affinity for ASAP1-SH3 (in words)” value at ASAP1-SH3 [4] is reported as “moderate affinities”.
`C[C@H](NC(=O)[C@H](CO)NC(=O)[C@H](CCCNC(=N)N)NC(=O)[C@H](CCCCN)NC(=O)[C@@H]1CCCN1C(=O)[C@@H]1CCCN1C(=O)CNC(=O)CNC(=O)[C@H](CO)NC(=O)[C@@H](N)CCCNC(=N)N)C(=O)N1CCC[C@H]1C(=O)N[C@@H](CO)C(=O)NCC(=O)N[C@@H](Cc1ccc(O)cc1)C(=O)O` [hnRNP G aa 156-169, △P162] (H-RSGGPPKRSAPSGY-OH; N-terminus and C-terminus assumed): the “binding affinity for BIN1-SH3 (in words)” value at BIN1-SH3 [3] is “reduced binding affinity”. Besides, the “affinity for BIN1-SH3 relative to wildtype peptide (fold)” value at BIN1-SH3 [3] (short peptide aa 156–169 △P162 vs wildtype) is recorded as “threefold weaker affinity”.
On to RSGGPPPKRSAPSG [hnRNP G 156-169], for which the Kd in the test with BIN1 SH3 [5] worked out at 150 µM.
Same read-out and setting: under KRGPPPRSGGPPPKRSAPSGP stands 40 µM.
As to KRGPPPRSGGPPPKRSAPSGP (also: FITC-labeled, site not given here), the Kd in the test with BIN1 SH3 [6] and with ASAP1 SH3 was ~400 µM throughout.
